# Reference: ChEMBL document CHEMBL5518244, “Design, Synthesis, and Biological Evaluation of a Novel NIK Inhibitor with Anti-Inflammatory and Hepatoprotective Effects for Sepsis Treatment” (J Med Chem, 2024)
# pIC50: −log10 of the molar value. Active and inactive are the calls of the source. The rule behind the calls is not given here.
# Columns and labels:
# [1] = molecular target: T1, Mitogen-activated protein kinase kinase kinase 14 (Homo sapiens, UniProt Q99558); assay: Inhibition of NIK (unknown origin) incubated 30 to 60 mins by ADP-Glo Kinase
# Target sequence in this assay (Q99558 whole entry): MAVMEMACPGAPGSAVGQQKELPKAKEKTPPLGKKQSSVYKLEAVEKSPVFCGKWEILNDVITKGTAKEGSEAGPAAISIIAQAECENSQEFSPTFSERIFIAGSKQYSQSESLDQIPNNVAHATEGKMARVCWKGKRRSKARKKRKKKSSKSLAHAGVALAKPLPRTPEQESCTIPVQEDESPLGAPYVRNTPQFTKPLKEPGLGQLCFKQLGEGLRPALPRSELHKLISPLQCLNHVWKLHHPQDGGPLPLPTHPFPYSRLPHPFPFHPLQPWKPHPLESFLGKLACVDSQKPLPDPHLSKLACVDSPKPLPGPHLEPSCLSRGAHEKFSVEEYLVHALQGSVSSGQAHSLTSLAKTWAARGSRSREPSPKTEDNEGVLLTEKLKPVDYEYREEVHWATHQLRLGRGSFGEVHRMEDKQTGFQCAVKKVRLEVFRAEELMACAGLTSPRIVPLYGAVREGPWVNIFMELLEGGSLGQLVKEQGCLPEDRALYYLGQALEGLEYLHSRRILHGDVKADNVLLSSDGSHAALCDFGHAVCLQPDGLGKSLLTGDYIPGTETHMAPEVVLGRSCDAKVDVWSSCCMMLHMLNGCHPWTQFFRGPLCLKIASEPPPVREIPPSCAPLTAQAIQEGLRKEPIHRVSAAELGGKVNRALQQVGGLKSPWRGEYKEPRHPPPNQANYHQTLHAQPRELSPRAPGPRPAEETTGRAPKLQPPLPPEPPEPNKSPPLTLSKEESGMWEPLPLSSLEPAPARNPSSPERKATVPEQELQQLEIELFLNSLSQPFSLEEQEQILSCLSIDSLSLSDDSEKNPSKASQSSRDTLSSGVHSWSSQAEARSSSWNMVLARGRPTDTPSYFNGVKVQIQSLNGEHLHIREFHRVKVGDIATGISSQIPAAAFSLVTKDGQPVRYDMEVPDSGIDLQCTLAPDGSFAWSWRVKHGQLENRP
# [2] = molecular target: T1, Mitogen-activated protein kinase kinase kinase 14; assay: Inhibition of NIK (unknown origin) expressed in COS-7 cells co-expressing NF-KappaB luciferase reporter assessed as suppression of luciferase reporter at 1 uM measured after 24 by beta-Gal activity assay; assay type: cell-based
# Target sequence in this assay (Q99558 whole entry, looked up): as the sequence (Q99558 whole entry) above
# [3] = molecular target: T1, Mitogen-activated protein kinase kinase kinase 14; assay: Inhibition of NIK (unknown origin) expressed in COS-7 cells co-expressing NF-KappaB luciferase reporter assessed as suppression of luciferase reporter at 5 uM measured after 24 by beta-Gal activity assay; assay type: cell-based
# Target sequence in this assay (Q99558 whole entry, looked up): as the sequence (Q99558 whole entry) above
# [4] = molecular target: T1, Mitogen-activated protein kinase kinase kinase 14; assay: Inhibition of NIK (unknown origin) expressed in COS-7 cells co-expressing NF-KappaB luciferase reporter assessed as suppression of luciferase reporter measured after 24 by beta-Gal activity assay; assay type: cell-based
# Target sequence in this assay (Q99558 whole entry): as above
# Macrophage = assay: Anti-inflammatory activity in mouse macrophages extracted from abdominal activity assessed as inhibition of LPS-induced nitric oxide production at 1 uM measured after 22 hrs by Griess reagent assay relative to control; assay type: functional, cell-based
SMILES,pIC50 [1],other results
COc1cccnc1Nc1nccc(N2CCCn3nc(C#CC(C)(O)c4nccs4)cc32)n1 (stereo not given),6.36,–
COc1cc(Nc2nccc(N3CCCn4nc(C#CC(C)(O)c5nccs5)cc43)n2)nc(OC)c1 (stereo not given),7.97,–
CC(O)(C#Cc1cc2n(n1)CCCN2c1ncnc2[nH]ccc12)c1nccs1 (stereo not given),< 6.30,–
COc1ccc(Nc2nccc(N3CCCn4nc(C#CC(C)(O)c5nccs5)cc43)n2)nc1 (stereo not given),8.13,–
CC(O)(C#Cc1cc2n(n1)CCCN2c1ccnc(Nc2ccc(Cl)cc2)n1)c1nccs1 (stereo not given),8.19,–
COCCN(C)c1cccc(Nc2nccc(N3CCCn4nc(C#CC(C)(O)c5nccs5)cc43)n2)n1 (stereo not given),7.83,–
CC(O)(C#Cc1cc2n(n1)CCCN2c1ccnc(Nc2cc(Cl)ccn2)n1)c1nccs1 (stereo not given),8.16,–
CC(O)(C#Cc1cc2n(n1)CCCN2c1ccnc(Nc2ccccc2)n1)c1nccs1 (stereo not given),8.32,inhibition [2]: Active; inhibition [3]: Active; pIC50 [4]: 5.66; pIC50 (Macrophage): 4.23
COc1cc(Nc2nccc(N3CCCn4nc(C#CC(C)(O)c5nccs5)cc43)n2)cc(OC)c1 (stereo not given),8.17,–
CC(O)(C#Cc1cc2n(n1)CCCN2c1cccc(Nc2ccccc2)n1)c1nccs1 (stereo not given),< 6.30,–
C(#Cc1cc2n(n1)CCCN2c1ccnc(Nc2ccc3c(c2)OCO3)n1)c1ccccn1,< 6.30,–
CC(O)(C#Cc1cc2n(n1)CCCN2c1ccnc(Nc2ccc3ccccc3n2)n1)c1nccs1 (stereo not given),7.66,–
COCCNc1nccc(N2CCCn3nc(C#CC(C)(O)c4nccs4)cc32)n1 (stereo not given),7.47,–
CC(O)(C#Cc1cc2n(n1)CCCN2c1ccnc(Nc2ccc3c(c2)OCO3)n1)c1ccccc1 (stereo not given),7.54,–
CN(C)c1cccc(Nc2nccc(N3CCCn4nc(C#CC(C)(O)c5nccs5)cc43)n2)n1 (stereo not given),7.89,–
CC(O)(C#Cc1cc2n(n1)CCCN2c1ccnc(Nc2ccncn2)n1)c1nccs1 (stereo not given),7.95,–
CC(O)(C#Cc1cc2n(n1)CCCN2c1nc(N)ncc1F)c1nccs1 (stereo not given),< 6.30,–
CC(O)(C#Cc1ccc2c(c1)N(c1nc(N)ncc1Cl)CC2)c1nccs1 (stereo not given),8.57,pIC50 [4]: 6.04; pIC50 (Macrophage): 4.23
CC(O)(C#Cc1cc2n(n1)CCCN2c1ccnc(Nc2cccc(N3CCOCC3)n2)n1)c1nccs1 (stereo not given),8.01,inhibition [2]: Active; inhibition [3]: Active; pIC50 [4]: 5.61; pIC50 (Macrophage): 4.76
CC(O)(C#Cc1cc2n(n1)CCCN2c1ccnc(Nc2ccc(F)cn2)n1)c1nccs1 (stereo not given),8.08,–
CC(O)(C#Cc1cc2n(n1)CCCN2c1ccnc(Nc2cc(C#N)ccn2)n1)c1nccs1 (stereo not given),8.16,–
Cn1cc(Nc2nccc(N3CCCn4nc(C#CC(C)(O)c5nccs5)cc43)n2)cn1 (stereo not given),8.27,–
CC(C)n1cc(Nc2nccc(N3CCCn4nc(C#CC(C)(O)c5nccs5)cc43)n2)cn1 (stereo not given),8.04,–
CC(O)(C#Cc1cc2n(n1)CCCN2c1ccnc(Nc2ccccn2)n1)c1nccs1 (stereo not given),8.23,–
COc1cc(Nc2nccc(N3CCCn4nc(C#C[C@](C)(O)c5nccs5)cc43)n2)cc(OC)c1,7.05,–
CC(O)(C#Cc1cc2n(n1)CCCN2c1ccnc(N)n1)c1nccs1 (stereo not given),8.34,–
CC(O)(C#Cc1cc2n(n1)CCCN2c1ccnc(Nc2cccc(N3CCOCC3)c2)n1)c1nccs1 (stereo not given),7.94,–
CC(C)Nc1nccc(N2CCCn3nc(C#CC(C)(O)c4nccs4)cc32)n1 (stereo not given),7.84,–

SMILES,pIC50 [1],other results
CC(O)(C#Cc1cc2n(n1)CCCN2c1ncnc(Nc2ccc(Cl)cc2)n1)c1nccs1 (stereo not given),8.33,–
CN(C)c1ccnc(Nc2nccc(N3CCCn4nc(C#CC(C)(O)c5nccs5)cc43)n2)c1 (stereo not given),6.68,–
CC(O)(C#Cc1cc2n(n1)CCCN2c1ccnc(Nc2ccc(F)cc2)n1)c1nccs1 (stereo not given),8.21,–
OC1(C#Cc2cc3n(n2)CCCN3c2ccnc(Nc3ccc4c(c3)OCO4)n2)COC1,< 6.30,–
CC(O)(C#Cc1cc2n(n1)CCCN2c1ccnc(Nc2ccccc2)c1)c1nccs1 (stereo not given),7.95,–
CC(O)(C#Cc1cc2n(n1)CCCN2c1ccnc(Nc2cccc(N3CCCCC3)n2)n1)c1nccs1 (stereo not given),7.61,–
CC(C)Oc1cccc(Nc2nccc(N3CCCn4nc(C#CC(C)(O)c5nccs5)cc43)n2)n1 (stereo not given),7.78,–
CC(O)(C#Cc1cc2n(n1)CCCN2c1ccnc(NC2CCCCC2)n1)c1nccs1 (stereo not given),6.88,–
COc1cccc(Nc2nccc(N3CCCn4nc(C#CC(C)(O)c5nccs5)cc43)n2)c1 (stereo not given),8.24,inhibition [2]: Active; inhibition [3]: Active; pIC50 [4]: 5.88; pIC50 (Macrophage): 4.34
COc1cccc(Nc2nccc(N3CCCn4nc(C#CC(C)(O)c5nccs5)cc43)n2)n1 (stereo not given),8.35,–
OC1(C#Cc2cc3n(n2)CCCN3c2ccnc(Nc3ccc4c(c3)OCO4)n2)CCCC1,7.85,–
COc1ccnc(Nc2nccc(N3CCCn4nc(C#CC(C)(O)c5nccs5)cc43)n2)c1 (stereo not given),8.29,–
C(#CC1CC1)c1cc2n(n1)CCCN2c1ccnc(Nc2ccc3c(c2)OCO3)n1,< 6.30,–
CNc1nccc(N2CCCn3nc(C#CC(C)(O)c4nccs4)cc32)n1 (stereo not given),7.95,–
CC(O)(C#Cc1cc2n(n1)CCCN2c1ccnc(Nc2cc(N3CCOCC3)ccn2)n1)c1nccs1 (stereo not given),6.47,–
CC(C)(O)C#Cc1cc2n(n1)CCCN2c1ccnc(Nc2ccc3c(c2)OCO3)n1,7.64,–
CC(O)(C#Cc1cc2n(n1)CCCN2c1cc(Nc2ccc(F)cc2)ncn1)c1nccs1 (stereo not given),7.23,–
CC(O)(C#Cc1cc2n(n1)CCCN2c1ccnc(Nc2cccc(C#N)c2)n1)c1nccs1 (stereo not given),8.30,inhibition [2]: Active; inhibition [3]: Active; pIC50 [4]: 5.45; pIC50 (Macrophage): 4.19
CC(O)(C#Cc1cc2n(n1)CCCN2c1ccnc(Nc2cccc(C(F)(F)F)n2)n1)c1nccs1 (stereo not given),7.78,–
CC(O)(C#Cc1cc2n(n1)CCCN2c1ccnc(Nc2ccc3c(c2)OC(F)(F)O3)n1)c1nccs1 (stereo not given),7.81,–
CC(O)(C#Cc1cc2n(n1)CCCN2c1nc(N)ncc1Cl)c1nccs1 (stereo not given),7.15,–
Cn1ccc(Nc2nccc(N3CCCn4nc(C#CC(C)(O)c5nccs5)cc43)n2)n1 (stereo not given),8.03,–
CC(O)(C#Cc1cc2n(n1)CCCN2c1ccnc(Nc2ccc3c(c2)OCO3)n1)c1nccs1 (stereo not given),8.55,inhibition [2]: Active; inhibition [3]: Active; pIC50 [4]: 5.85; pIC50 (Macrophage): 4.10
OC1(C#Cc2cc3n(n2)CCCN3c2ccnc(Nc3ccc4c(c3)OCO4)n2)CCn2ccnc21 (stereo not given),8.36,–
CN(C)c1cccc(Nc2nccc(N3CCCn4nc(C#CC(C)(O)c5nccs5)cc43)n2)c1 (stereo not given),8.11,inhibition [2]: Active; inhibition [3]: Active; pIC50 [4]: 5.65; pIC50 (Macrophage): 4.11
Cc1cc(C(C)(O)C#Cc2cc3n(n2)CCCN3c2ccnc(Nc3ccc4c(c3)OCO4)n2)no1 (stereo not given),8.42,–
CC(O)(C#Cc1cc2n(n1)CCCN2c1ccnc(NC23CC(C2)C3)n1)c1nccs1 (stereo not given),8.27,inhibition [2]: Active; inhibition [3]: Active; pIC50 [4]: 5.82; pIC50 (Macrophage): 4.78
